Structures can show the parent of a compound that is named as a salt.
Assays:
GRABNE1m [1] = experiment: Dual-color time-lapse imaging in HeLa cells co-expressing DA1.2 and NE1m, green channel; type: cell-based; settings: for NE1m fluorescence response to ligand: NE 1 µM then DA 5 µM
Protocol: (§1) Stock solutions for the compounds were dissolved in the appropriate vehicle, and a volume from 0.95 to 1 µl was prepared in each 1.5-ml microcentrifuge tube. Compounds were mixed with 0.5 ml imaging buffer from the well and applied to the same well at each time point during imaging (Additional file 1: Fig. S4b). For temperature equilibration of the imaging buffer, 0.5 ml of the imaging buffer was transferred from the well into an empty 1.5-ml microcentrifuge tube and then applied to the buffer in the same well; this procedure repeated 5 times (Additional file 1: Fig. S4c). The procedure for the compound application in the time-lapse imaging is shown in Additional file 1: Fig. S5. The ‘ligand’ dissolved in the appropriate vehicle was applied at the imaging time point shown by the arrow; the ‘vehicle’ was applied at the same time point.
We used Fiji, a distribution of ImageJ [44], for the preparation of quantification and measurement of all imaging files. Principally, for all images, the background was subtracted, and images were registered by StackReg (http://bigwww.epfl.ch/thevenaz/stackreg/), a Fiji plugin to correct misregistration, if required. Note that the median filter was used for the time-lapse images of the neuron before registration to remove camera noise preventing registration. Then, regions of interests (ROIs) were selected for the first time point in time-lapse imaging or in the images before the compound application, to surround the whole cell body for HeLa cells and a dendrite near the cell body for hippocampal neurons. […] In order to normalize the fluorescence changes with the amount of biosensor expression, ΔF/F0 was calculated using the intensity before the compound application. For the time-lapse experiments, the value used for F0 was the mean intensity before compound application. The image of fluorescence change (ΔF/F0) was represented as the pseudocolor intensity-modulated display mode, where color represents the relative ratio value, whilst the brightness of the color represented the fluorescence intensity of the source images. […]

R-GenGAR-DA1.2 [2] = biological target: T1, R-GenGAR-DA1.2 (Homo sapiens, UniProt P21728); experiment: Dual-color time-lapse imaging in HeLa cells co-expressing DA1.2 and NE1m, red channel; type: cell-based
T1 sequence (P21728 with tags, fused parts or gaps): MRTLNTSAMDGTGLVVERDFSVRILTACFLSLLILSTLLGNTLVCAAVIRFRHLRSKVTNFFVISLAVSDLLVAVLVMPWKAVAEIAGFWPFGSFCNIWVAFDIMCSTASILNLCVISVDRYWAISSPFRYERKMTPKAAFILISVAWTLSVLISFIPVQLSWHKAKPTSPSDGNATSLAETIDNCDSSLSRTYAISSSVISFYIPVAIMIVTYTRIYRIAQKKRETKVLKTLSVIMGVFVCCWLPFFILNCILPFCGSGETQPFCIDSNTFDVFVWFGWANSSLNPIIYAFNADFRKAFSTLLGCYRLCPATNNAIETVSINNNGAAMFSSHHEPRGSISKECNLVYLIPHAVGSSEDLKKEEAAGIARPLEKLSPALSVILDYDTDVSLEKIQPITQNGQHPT
T1 sequence (Q9U6Y8 with tags, fused parts or gaps partner): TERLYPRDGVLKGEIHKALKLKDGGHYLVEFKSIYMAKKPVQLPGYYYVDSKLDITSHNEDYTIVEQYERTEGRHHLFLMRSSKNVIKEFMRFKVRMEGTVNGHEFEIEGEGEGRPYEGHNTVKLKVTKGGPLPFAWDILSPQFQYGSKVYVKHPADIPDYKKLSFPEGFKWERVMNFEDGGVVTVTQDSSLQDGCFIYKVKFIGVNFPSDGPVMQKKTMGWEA
Protocol: as §1
(§2) We used Fiji, a distribution of ImageJ [44], for the preparation of quantification and measurement of all imaging files. […] In order to normalize the fluorescence changes with the amount of biosensor expression, ΔF/F0 was calculated using the intensity before the compound application. […] The image of fluorescence change (ΔF/F0) was represented as the pseudocolor intensity-modulated display mode, where color represents the relative ratio value, whilst the brightness of the color represented the fluorescence intensity of the source images. […]

R-GenGAR-DA1.2 [3] = biological target: T1, R-GenGAR-DA1.2; experiment: Dual-color time-lapse imaging in rat primary hippocampal neurons co-expressing DA1.2 and NE1m, red channel; type: cell-based
Protocol: (§3) Primary cultures of rat hippocampal neurons were prepared similarly to that described previously. Female pregnant Wistar/ST rats (total 8 rats) arrived from Japan SLC on the day of the experiment. A pregnant rat with embryonic rats (embryonic days 19) was killed by CO2 inhalation and then embryos (10 embryos per pregnant rat) were removed and decapitated. […] To dissociate hippocampal neurons, hippocampi were treated with 10 units/ml papain (LS003126, Worthington Biochemical) for 10 min at 37 °C. […] Half of the medium was removed and replaced with fresh medium every 7 days.
(§4) Stock solutions for the compounds were dissolved in the appropriate vehicle, and a volume from 0.95 to 1 µl was prepared in each 1.5-ml microcentrifuge tube. […]
as §2

GRABNE1m [4] = experiment: Dual-color time-lapse imaging in rat primary hippocampal neurons co-expressing DA1.2 and NE1m, green channel; type: cell-based
Protocol: as §3, §4, §2

R-GenGAR-DA1.2 [5] = biological target: T1, R-GenGAR-DA1.2; settings: HeLa cells, all compounds 10 µM
Protocol: Stock solutions for the compounds were dissolved in the appropriate vehicle, and a volume from 0.95 to 1 µl was prepared in each 1.5-ml microcentrifuge tube. Compounds were mixed with 0.5 ml imaging buffer from the well and applied to the same well at each time point during imaging (Additional file 1: Fig. S4b). For temperature equilibration of the imaging buffer, 0.5 ml of the imaging buffer was transferred from the well into an empty 1.5-ml microcentrifuge tube and then applied to the buffer in the same well; this procedure repeated 5 times (Additional file 1: Fig. S4c). […] The ‘ligand’ dissolved in the appropriate vehicle was applied at the imaging time point shown by the arrow; the ‘vehicle’ was applied at the same time point.

R-GenGAR-DA1.2 [6] = biological target: T1, R-GenGAR-DA1.2; settings: rat primary hippocampal neurons
Protocol: Primary cultures of rat hippocampal neurons were prepared similarly to that described previously [40]. Female pregnant Wistar/ST rats (total 8 rats) arrived from Japan SLC on the day of the experiment. A pregnant rat with embryonic rats (embryonic days 19) was killed by CO2 inhalation and then embryos (10 embryos per pregnant rat) were removed and decapitated. […] To dissociate hippocampal neurons, hippocampi were treated with 10 units/ml papain (LS003126, Worthington Biochemical) for 10 min at 37 °C. […] Half of the medium was removed and replaced with fresh medium every 7 days.

For `NCCc1ccc(O)c(O)c1` [DA, Dopamine], the “NE1m fluorescence response to ligand” value (GRABNE1m [1]) was “not DA”.

With `NC[C@H](O)c1ccc(O)c(O)c1` [NE, L-noradrenaline bitartrate monohydrate] the “DA1.2 fluorescence response to ligand” value (R-GenGAR-DA1.2 [2]; NE 1 µM then DA 5 µM) was “not to NE”, the “NE1m fluorescence response to ligand” value (GRABNE1m [1]) was “increase in green fluorescence” and the “DA1.2 fluorescence response to ligand” value (R-GenGAR-DA1.2 [3]; NE 1 µM then DA 5 µM) was “not NE”. The “NE1m fluorescence response to ligand” value (GRABNE1m [4]; NE 1 µM) was “increase in NE1m green fluorescence”.

`CN1CCc2cc(Cl)c(O)cc2[C@@H](c2ccccc2)C1` [SCH, R( +)-SCH 23390 hydrochloride] was tested, and the “effect of antagonist on DA1.2 response to DA” value (R-GenGAR-DA1.2 [2]; SCH 5 µM) was “blocked”, the “effect of antagonist on DA1.2 response to DA” value (R-GenGAR-DA1.2 [3]; SCH 5 µM) was “restored” and the “effect of antagonist on the response of DA1.2 to DA” value (R-GenGAR-DA1.2 [5]) was “blocked”. The “effect of antagonist applied after DA on DA1.2 fluorescence” value (R-GenGAR-DA1.2 [6]; SCH 5 µM after DA 5 µM) was “restored to baseline” and the “effect of antagonist pretreatment on response of DA1.2 to DA” value (R-GenGAR-DA1.2 [6]; SCH before DA) was “completely suppressed”.

For `COC(=O)[C@@H]1[C@H]2C[C@H]3c4[nH]c5ccccc5c4CCN3C[C@@H]2CC[C@@H]1O` [YO, yohimbine hydrochloride], the “effect of antagonist on NE1m fluorescence response” value (GRABNE1m [1]; YO 1 µM) was “recovered to its basal level” and the “effect of antagonist on NE1m fluorescence response” value (GRABNE1m [4]; YO 1 µM) was “blocked”.

From PMC8647500 (Molecular Brain, 2021)
